This is an account of results in patent publication US20050089535A1, “Delivery of biologically active agents” (priority 2002, published 2005).

The series is described as follows: Use of the Weston needleless injector to evaluate penetration of the cervix (dye track). Details: species or system human. The settings on record: 0.2 ml of 1 mg/ml methylene blue in phosphate buffered saline, Weston needleless injector held against ectocervix, ex vivo cervix from non-pregnant women. The method, then:
A Weston needleless injector was loaded with 0.2 ml of dye (1 mg/ml of methylene blue {Sigma} in phosphate buffered saline). Whole human cervix was obtained at hysterectomy from non-pregnant women of reproductive age. The cervix was tested within 30 minutes of removal from the patient. The needleless injector device was held against the ectocervix region. Increased pressure on the needleless injector activated the device. Two injections were performed for each specimen.
The cervix was dissected along the track of the injection (FIG. 2) and the length of the dye track was measured. In four experiments the length of the track was a mean of 6.1 mm (standard error of the mean=1.9 mm). The mean lateral spread (any signs of the blue dye) was 8.8 mm.

As to `CN(C)c1ccc2nc3ccc(=[N+](C)C)cc-3sc2c1` [dye, methylene blue], the “mean lateral spread (any signs of the blue dye)” value is 8.8 mm. Moreover, under “four experiments, SEM 1.9 mm”, the “length of the dye track (mean)” value was 6.1 mm.
